{"source": "patent US20260325655A1", "about": "“DECREASING THE INTRINSICALLY DISORDERED PROTEIN ALPHA-SYNUCLEIN’S LEVELS BY TARGETING ITS STRUCTURED MRNA WITH A RIBONUCLEASE TARGETING CHIMERA” (University of Florida Research Foundation, Incorporated, priority 2023, published 2026)", "format_in_all_cases": "cell-based, human", "key": {"TfR mRNA": {"tested_on": "TfR mRNA", "assay": "TfR mRNA in SH-SY5Y cells by RT-qPCR", "description": "(§1) RNA extraction and reverse transcription-quantitative polymerase chain reaction (RT-qPCR). Total RNA was extracted from cells using a Quick-RNA MiniPrep Kit (Zymo Research) per the manufacturer's protocol including DNase treatment. For each sample, 200 ng of RNA was reverse transcribed into cDNA by using a qScript cDNA Synthesis Kit (QuantaBio) according to the manufacturer's instructions. To assess the relative mRNA levels, RT-qPCR was performed in triplicate using SYBR Green PCR mater mix (Applied Biosystems) with a Quant Studio 5 Real-Time PCR system. The relative levels of mRNA were calculated by using the ΔΔCt method as previously described.^8"}, "SNCA mRNA": {"tested_on": "SNCA mRNA", "assay": "SNCA mRNA cleavage after siRNA knock-down of RNase L in SH-SY5Y cells", "description": "as §1\nTransfection of siRNAs. The siRNAs were purchased from commercial sources as listed in General information. The α-synuclein siRNA (final concentration of 200 nM) or RNase L siRNA (final concentration of 50 nM) were transfected into SH-SY5Y cells (at ~60% confluency in 12-well plates) by using the Lipofectamine RNAiMax (Life technologies) per manufacturer's protocol."}, "[1]": {"tested_on": "SNCA IRE-luciferase transcript", "assay": "SNCA IRE-luciferase transcript abundance by RT-qPCR", "settings": "Homo sapiens, 2 μM, read-out: reduction of SNCA IRE-luciferase transcript levels", "description": "as §1\n(§2) Plasmid constructs and establishment of reporter gene overexpressing cells. Construction of pIRES-Luc-EGFP-puro plasmid and pCDH-α-syn-5′-UTR-Luc-EGFP-puro plasmid used in 5′ UTR-luciferase-based selectivity assay were previously described.^4 Briefly, In-Fusion PCR cloning system (Takara Bio, Mountain View, CA, USA) was used for all plasmid constructions per the manufacturer's instructions. To ensure sequence accuracy, all plasmids generated in this study were confirmed by sequencing."}, "[2]": {"tested_on": "control luciferase reporter lacking an IRE", "assay": "control luciferase reporter lacking an IRE", "settings": "reporter lacks IRE / SNCA-UTR sequence", "excerpt": "as §2\nLuciferase assay. The effect of compounds on translation of SNCA IRE-containing transcript was measured by using a luciferase reporter assay. HeLa cells (~60% confluency) were transfected with plasmids (2 μg per 60 mm dish) by using JetPrime (Polyplus Transfection) according to the manufacturer's recommended procedures. Approximately 16 h after transfection, the transfection cocktail was removed, and the cells were trypsinized and seeded to 96-well plates (8,000 cells per well). After 6 h, cells were treated as described in Cell Culture. To measure the luciferase signals, the cells were then washed with 1× DPBS, and luciferase activity in each well was measured by using the ONE-Glo Luciferase Assay System (Promega) per the manufacturer's instructions. Luminescence from firefly luciferase reaction was measured using a Biomek FLx800 plate reader."}, "SH-SY5Y cells": {"tested_on": "SH-SY5Y cells", "assay": "transcriptome-wide RNA-seq in SH-SY5Y cells", "settings": "for inhibition at 2 µM: Homo sapiens, not statistically significant", "description": "RNA-seq analysis. Total RNA was quantified using the Qubit 2.0 Fluorometer (Invitrogen) and an Agilent 2100 Bioanalyzer RNA nano chip. Samples with RIN>9.0 were proceeded to library preparation using NEBNext Ultra II Directional RNA Kit (Cat. #E7760, NEB) following manufacture's protocol. Briefly, 200 ng of total RNA was depleted of ribosomal RNA using the NEBNext rRNA Depletion Module. The product was chemically fragmented using NEBNext Magnesium RNA Fragmentation Module (E6150S, NEB) the at 94° C. for 15 min. First-strand synthesis was performed with random primers, and second strand was synthesized with dUTP in place of dTTP. After end repair and 3′ adenylation, the cDNA was ligated with adaptors and then treated with USER enzyme (Uracil-specific excision reagent). The product was PCR amplified with Illumina-barcoded primers to generate the cDNA libraries. The final libraries were analyzed on the bioanalyzer DNA chips, pooled in equimolar ratios, and loaded onto the NextSeq 500 v2.5 flow cell and sequenced with 2×40 bp paired-end chemistry. The raw data were aligned to the human genome using STAR.^11 Read counts were extracted using featureCounts,^12 and the differential gene analysis was performed using Deseq2.^13"}, "ferritin mRNA": {"tested_on": "ferritin mRNA", "assay": "ferritin mRNA in SH-SY5Y cells by RT-qPCR", "description": "as §1"}, "[3]": {"settings": "of 447 detectable IRE-containing mRNAs"}}, "note": "Where two headings read alike, the source gives them in different places.", "data": [{"compound": "CCOC(=O)C1=C(Nc2ccccc2)S/C(=C\\c2ccc(OCCOCCOCCOCCNC(=O)CCCOc3ccc(-n4c(SCC(=O)Nc5ccc6cn[nH]c6c5)nnc4-c4ccncc4)cc3)c(O)c2)C1=O", "note": "[Syn-RiboTAC]", "values": [{"measurement": "effect on TfR mRNA level", "setting": "TfR mRNA", "result": "None of the three transcripts was affected"}, {"measurement": "effect of scrambled control siRNA on Syn-RiboTAC activity", "setting": "SNCA mRNA; scrambled control siRNA", "result": "No significant effect on activity"}, {"measurement": "effect on SNCA mRNA after RNase L knock-down", "setting": "SNCA mRNA; siRNA pool against RNase L", "result": "ablated the effect of Syn-RiboTAC on SNCA mRNA"}, {"measurement": "inhibition at 2 µM", "setting": "[1]", "result": "~50", "unit": "%"}, {"measurement": "inhibition in the control luciferase reporter", "setting": "[2]", "result": "Neither compound showed inhibition"}, {"measurement": "number of genes downregulated", "setting": "SH-SY5Y cells; 2 μM, of 30,175 genes detected", "result": 34}, {"measurement": "number of genes upregulated", "setting": "SH-SY5Y cells; 2 μM, of 30,175 genes detected", "result": 14}, {"measurement": "percent of genes affected", "setting": "SH-SY5Y cells; 2 μM, of 30,175 genes detected", "result": 0.16, "unit": "%"}, {"measurement": "number of genes affected", "setting": "SH-SY5Y cells; 2 μM, of 30,175 genes detected, log 2fold change >0.58, p<0.05", "result": 48}, {"measurement": "inhibition at 2 µM", "setting": "SH-SY5Y cells; SH-SY5Y, RNA-seq, read-out: reduction of BLVRB transcript level", "result": "~20", "unit": "%"}, {"measurement": "inhibition at 2 µM", "setting": "SH-SY5Y cells; SH-SY5Y, RNA-seq, read-out: reduction of SNCA transcript abundance by RNA-seq", "result": "~35", "unit": "%"}, {"measurement": "APP, ferritin, and TfR transcript levels in the RNA-seq data", "setting": "SH-SY5Y cells; RNA-seq, SH-SY5Y", "result": "unaffected"}, {"measurement": "number of bound transcripts whose levels were reduced (cleaved)", "setting": "SH-SY5Y cells; of 38 Chem-CLIP-bound transcripts detected in RNA-seq, including SNCA", "result": "four"}, {"measurement": "number of IRE-containing mRNAs affected", "setting": "SH-SY5Y cells; [3]", "result": 19}, {"measurement": "number of IRE-containing mRNAs downregulated", "setting": "SH-SY5Y cells; [3]", "result": 11}, {"measurement": "number of IRE-containing mRNAs upregulated", "setting": "SH-SY5Y cells; [3]", "result": 8}, {"measurement": "effect on ferritin mRNA level", "setting": "ferritin mRNA", "result": "None of the three transcripts was affected"}]}]}
